In patent publication US20200131196A1 (Mount Tam Therapeutics, Inc., priority 2017, published 2020):

Tests used:
[1] = test system: Hs 852.T; experiment: OncoPanel cell proliferation assay, Hs 852.T; format: cell-based, human
Protocol: (§1) Cells were grown in RPMI 1640, 10% FBS, 2 mM L-alanyl-L-glutamine, 1 mM Na pyruvate, or a special medium. Cells were seeded into 384-well plates and incubated in a humidified atmosphere of 5% CO2 at 37° C. Compounds were added the day following cell seeding. At the same time, a time zero untreated cell plate was generated. After a 3-day incubation period, cells were fixed and stained to allow fluorescence imaging of nuclei. Compounds (1 mM stock solutions) were serially diluted in half-log steps from the highest test concentration ([…]), and assayed over 10 concentrations with a maximum assay concentration of 0.1% DMSO. Automated fluorescence microscopy was carried out using a Molecular Devices ImageXpress Micro XL high-content imager, and images were collected with a 4× objective. 16-bit TIFF images were acquired and analyzed with MetaXpress 5.1.0.41 software.
(§2) Cell proliferation was measured by the fluorescence intensity of an incorporated nuclear dye. The output is referred to as the relative cell count, where the measured nuclear intensity is transformed to percent of control (POC) using the following formula: […]
(§3) Cellular response parameters were calculated using nonlinear regression to a sigmoidal single-site dose response model:
(§4) EC50 is the test compound concentration at the curve inflection point or half the effective response (parameter C of the fitted curve solution). GI50 is the concentration needed to reduce the observed growth by half (midway between the curve maximum and the time zero value). “Cell Count Activity Area” is an estimate of the integrated area above the curve (Barretina, et al. The Cancer Cell Line Encyclopedia enables predictive modelling of anticancer drug sensitivity. Nature 483: 603-607). […] In rare instances, values <0 or >10 may be observed. […] Curve-fitting, calculations, and report generation was performed using a custom data reduction engine and MathIQ based software (AIM).

[2] = test system: DMS114; experiment: OncoPanel cell proliferation assay, DMS114; format: cell-based, human; details: Homo sapiens
Protocol: as §1, with “Cells” for “Cells were grown in RPMI 1640, 10% FBS, 2 mM L-alanyl-L-glutamine, 1 mM Na pyruvate, or a special medium. Cells”
as §2, §3
GI50 is the concentration needed to reduce the observed growth by half (midway between the curve maximum and the time zero value). […] In rare instances, values <0 or >10 may be observed. […] Curve-fitting, calculations, and report generation was performed using a custom data reduction engine and MathIQ based software (AIM).

[3] = test system: U-138MG; experiment: OncoPanel cell proliferation assay, U-138MG; format: cell-based, human; details: U-138MG
Protocol: as §1, §2, §3, §4

[4] = test system: CaOV3; experiment: OncoPanel cell proliferation assay, CaOV3; format: cell-based, human
Protocol: as §1, §2, §3, §4

[5] = test system: PC-3; experiment: OncoPanel cell proliferation assay, PC-3
Protocol: (§5) Cells were seeded into 384-well plates and incubated in a humidified atmosphere of 5% CO2 at 37° C. Compounds were added the day following cell seeding. At the same time, a time zero untreated cell plate was generated. After a 3-day incubation period, cells were fixed and stained to allow fluorescence imaging of nuclei. Compounds (1 mM stock solutions) were serially diluted in half-log steps from the highest test concentration (1 micromol), and assayed over 10 concentrations with a maximum assay concentration of 0.1% DMSO. Automated fluorescence microscopy was carried out using a Molecular Devices ImageXpress Micro XL high-content imager, and images were collected with a 4× objective. 16-bit TIFF images were acquired and analyzed with MetaXpress 5.1.0.41 software.

[6] = test system: CEM-C1; experiment: OncoPanel cell proliferation assay, CEM-C1; format: cell-based, human
Protocol: as §1, §2, §3, §4

[7] = test system: A431; experiment: OncoPanel cell proliferation assay, A431; format: cell-based, human
Protocol: as §1, §2, §3, §4

[8] = test system: G-402; experiment: OncoPanel cell proliferation assay, G-402; format: cell-based, human
Protocol: as §1, §2, §3, §4

[9] = test system: A101D; experiment: OncoPanel cell proliferation assay, A101D; format: cell-based, human
Protocol: as §1, §2, §3, §4

[10] = test system: AGS; experiment: OncoPanel cell proliferation assay, AGS; format: cell-based, human
Protocol: as §1, §2, §3, §4

[11] = test system: SK-MEL-28; experiment: OncoPanel cell proliferation assay, SK-MEL-28; format: cell-based, human
Protocol: as §1, §2, §3, §4

[12] = test system: AsPC-1; experiment: OncoPanel cell proliferation assay, AsPC-1; details: AsPC-1
Protocol: as §5

[13] = Homo sapiens, read-out: Cell Count GI50
[14] = Homo sapiens, read-out: Cell Count IC50

CN[C@@H]1C[C@H]2O[C@@](C)([C@@H]1OC)n1c3ccccc3c3c4c(c5c6ccccc6n2c5c31)C(=O)NC4 [Staurosporine, reference compound]
Cell Count Activity Area [1]: 3.16
GI50 [1, 13]: 1.35 nM
EC50 ([2]; DMS-114, read-out: Cell Count EC50): 21 nM
GI50 ([2]; DMS-114, read-out: Cell Count GI50): 3.35 nM
EC50 ([3]; Homo sapiens, U138-MG, read-out: Cell Count EC50): 0.857 nM
GI50 ([3]; Homo sapiens, U138-MG, read-out: Cell Count GI50): 1.05 nM
Cell Count Activity Area [3]: 3.72
Cell Count Activity Area [4]: 5.31
GI50 ([4]; Homo sapiens, Caov-3, read-out: Cell Count GI50): 0.273 nM
EC50 ([5]; Homo sapiens, PC-3, read-out: Cell Count EC50): 0.903 nM
GI50 ([5]; Homo sapiens, PC-3, read-out: Cell Count GI50): 1.07 nM
Cell Count Activity Area ([5]; PC-3): 4.67
Cell Count Activity Area [6]: 4.28
GI50 [6, 13]: 7.27 nM
IC50 [6, 14]: 9.2 nM
Cell Count Activity Area [7]: 5.64
GI50 ([7]; Homo sapiens, A-431, read-out: Cell Count GI50): 1.03 nM
IC50 ([7]; Homo sapiens, A-431, read-out: Cell Count IC50): 1.19 nM
Cell Count Activity Area [8]: 5.93
GI50 [8, 13]: 0.664 nM
Cell Count Activity Area [9]: 4.56
EC50 ([9]; Homo sapiens, read-out: Cell Count EC50): 7.02 nM
GI50 [9, 13]: 2.65 nM
Cell Count Activity Area [10]: 6.19
GI50 [10, 13]: 0.926 nM
IC50 [10, 14]: 1.21 nM
Cell Count Activity Area [11]: 2.81
GI50 [11, 13]: 32.1 nM
IC50 [11, 14]: 64.3 nM
Cell Count Activity Area [12]: 3.28
